Experiments:
FPR1 = FPR1 (Homo sapiens (Human), UniProt P21462); assay: Agonistic activity (calcium FLIPR) in hFPR1-Gα15-CHO cells; assay type: cell-based; conditions: FLIPR Calcium 5 dye fluorescence, agonistic response
Procedure: (§1) Cells (hFPR1-Gα15-CHO or hFPR2-Aq-CHO) are suspended in 10 mL of respective complete medium (F12(1×) HAM media; 10% HI-FBS; 0.1 mg/ml Hygromycin B and 0.2 mg/ml Zeocin [for hFPR1 only]; 0.4 mg/mL Geneticin and 0.25 mg/ml Zeocin [for hFPR2-Aq only]) and viability is checked using Trypan Blue exclusion. After washing, the cells are plated at 10,000 cells per well in 40 μL complete medium in a 384-well sterile clear bottom black plate and incubated in a 5% CO2 incubator at 37° C. for 18 hours. Plating media is removed from each well by decanting and gentle tapping before 30 μL of 0.5× Calcium 5 dye solution (0.5×FLIPR Calcium 5 dye (Molecular devices, R8186)); HBSS; 20 mM HEPES; 2.5 mM Probenecid; 0.025% Pluronic F-127; pH adjusted to 7.4) is added to each well and the plate is then incubated at 37° C. for 30 minutes. For the assay the plate is equilibrated at room temperature for 10 minutes before placing it in the FLIPR. Compounds are dissolved in DMSO and serially diluted over an 11 point half log (3.16 fold) dilution (2 mM to 20 nM). Compounds are then diluted 1:50 in assay buffer (HBSS; 20 mM HEPES; 2.5 mM Probenecid; 0.05% gelatin; 0.1% BSA; pH adjusted to 7.4) just before performing the assay. Compounds are finally added to the respective wells of the cell plate (final assay concentration 10 μM to 100 pM) using the FLIPR (e.g. FLIPR-Tetra, Molecular Devices) and fluorescence readings are captured for 5 minutes. The increase in fluorescence from the basal reading in the presence of the compounds is compared with that of the control wells (wells having no compound) to calculate the activity of the compounds. The EC50 values of the compounds can be determined using e.g. Graph pad Prism software.
(§2) Assay Method for Measuring Agonistic Activity of Compounds in hFPR1-Gα15-CHO and hFPR2-Aq-CHO Cell
(§3) Cryo-vial containing 6×10^6 cells (hFPR1-Gα15-CHO or hFPR2-Aq-CHO) was thawed in a 37° C. water bath. Cells were suspended in 10 ml of respective complete growth media (F12(1×) HAM media (Gibco; Cat#11765); 10% HI-FBS (Gibco; Cat#10082); 0.1 mg/ml Hygromycin B (Invitrogen; Cat#10687-010) [for hFPR1 only]; 0.2 mg/ml Zeocin (Invitrogen; Cat#R25001) [for hFPR1 only]; 0.4 mg/ml Geneticin (Gibco; Cat#10131) [for hFPR2-Aq only]; 0.25 mg/ml Zeocin (Invitrogen; Cat#R25001) [for hFPR2-Aq only]) in a 15 ml centrifuge tube. The cell viability was checked with the help of Trypan Blue dye. Upon washing the cells, those were plated in a 384-well sterile clear bottom black plate (Greiner Bioone Cat#781091) so that, each well contained 10,000 cells in 40 μl complete growth media. The plate was incubated in a 5% CO2 incubator at 37° C. for 18 hours.
(§4) Before assay on the next day, the cell plating media was removed from each well of the plate by decanting and gentle tapping. 30 μl, 0.11 of 0.5× Calcium 5 dye solution (0.5×FLIPR Calcium 5 dye (Molecular devices Cat# R8186); HBSS (Invitrogen; Cat#14025); 20 mM HEPES (Sigma; Cat#H0887); 2.5 mM Probenecid (Sigma; Cat#P8761); 0.025% Pluronic F-127 (Sigma; Cat#P2443); pH adjusted to 7.4) was added to each well. The plate was then incubated at 37° C. for 30 minutes. Following which the plate was equilibrated at room temperature for 10 minutes before placing it in a 384 well FLIPR for assay. Compounds were dissolved in DMSO and serially diluted following 11 point half log (3.16 fold) dilution with a starting concentration of 2 mM (Final assay concentration 10 μM). Aliquots of above mentioned each dilution was mixed with assay buffer (HBSS (Invitrogen; Cat#14025); 20 mM HEPES (Sigma; Cat#H0887); 2.5 mM Probenecid (Sigma; Cat#P8761); 0.05% gelatin (Sigma; Cat#G1890); 0.1% BSA (Sigma; Cat#A3059); pH adjusted to 7.4) just before performing the assay. Compounds were added to the respective wells of the assay ready cell plate with the help of the FLIPR (FLIPR Tetra) and fluorescence readings were captured for 5 minutes to measure any agonistic response of the compounds. […]

FPR2 = FPR2 (Homo sapiens (Human), UniProt P25090); assay: Agonistic activity (calcium FLIPR) in hFPR2-Aq-CHO cells; assay type: cell-based; conditions: FLIPR Calcium 5 dye fluorescence, agonistic response
Procedure: as §1, §2, §3, §4

Sequence of FPR1 (P21462 whole entry): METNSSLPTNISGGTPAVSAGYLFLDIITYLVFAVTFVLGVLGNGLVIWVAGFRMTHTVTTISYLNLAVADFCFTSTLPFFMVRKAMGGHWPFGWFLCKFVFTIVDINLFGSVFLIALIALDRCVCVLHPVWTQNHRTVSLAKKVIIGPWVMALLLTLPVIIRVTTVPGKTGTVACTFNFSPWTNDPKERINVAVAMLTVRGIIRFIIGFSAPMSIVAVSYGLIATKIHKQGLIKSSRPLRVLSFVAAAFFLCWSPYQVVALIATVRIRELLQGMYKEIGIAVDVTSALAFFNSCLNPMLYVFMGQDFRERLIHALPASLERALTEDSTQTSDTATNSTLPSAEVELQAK
Sequence of FPR2 (P25090 whole entry): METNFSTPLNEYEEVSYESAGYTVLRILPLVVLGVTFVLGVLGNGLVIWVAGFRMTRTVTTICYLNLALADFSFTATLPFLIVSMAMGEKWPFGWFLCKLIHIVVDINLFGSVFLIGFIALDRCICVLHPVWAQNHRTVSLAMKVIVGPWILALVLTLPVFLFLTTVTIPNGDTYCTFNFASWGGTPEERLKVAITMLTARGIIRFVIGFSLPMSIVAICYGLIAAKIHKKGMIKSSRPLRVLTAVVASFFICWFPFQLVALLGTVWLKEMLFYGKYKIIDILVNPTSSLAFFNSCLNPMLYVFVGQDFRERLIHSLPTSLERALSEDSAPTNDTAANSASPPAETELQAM

SMILES: COc1cc(F)c([C@@H]2CC(=O)NC[C@H]2NC(=O)Nc2ccc(Cl)c(O)c2)c(F)c1 (racemic) [Example 57, rac-trans-1-(4-Chloro-3-hydroxy-phenyl)-3-[4-(2,6-difluoro-4-methoxy-phenyl)-6-oxo-piperidin-3-yl]-urea]
- EC50 (FPR1): 1 to 1000 nM
- EC50 (FPR2): < 1 nM

SMILES: COc1cc(F)c([C@@H]2CC(=O)NC[C@H]2NC(=O)Nc2ccc(Cl)c(F)c2)c(F)c1 (racemic) [Example 58, rac-trans-1-(4-Chloro-3-fluoro-phenyl)-3-[4-(2,6-difluoro-4-methoxy-phenyl)-6-oxo-piperidin-3-yl]-urea]
- EC50 (FPR1): 1 to 1000 nM
- EC50 (FPR2): 1 to 1000 nM

SMILES: CCc1cc(F)c([C@@H]2CC(=O)NC[C@H]2NC(=O)Nc2ccc(Cl)cc2)c(F)c1 (racemic) [Example 69, rac-trans-1-(4-chlorophenyl)-3-(4-(4-ethyl-2,6-difluorophenyl)-6-oxopiperidin-3-yl)urea]
- EC50 (FPR1): 1 to 1000 nM
- EC50 (FPR2): 1 to 1000 nM

SMILES: O=C1C[C@@H](c2c(F)cc(OC(F)F)cc2F)[C@H](NC(=O)Nc2ccc(Cl)cc2)CN1 (racemic) [Example 70, rac-trans-1-(4-chlorophenyl)-3-(4-(4-(difluoromethoxy)-2,6-difluorophenyl)-6-oxopiperidin-3-yl)urea]
- EC50 (FPR1): 1 to 1000 nM
- EC50 (FPR2): 1 to 1000 nM

SMILES: CCc1ccc([C@@H]2CC(=O)NC[C@H]2NC(=O)Nc2ccc(Cl)cc2)cc1 (racemic) [Example 73, rac-trans-1-(4-chlorophenyl)-3-(4-(4-ethylphenyl)-6-oxopiperidin-3-yl)urea]
- EC50 (FPR1): 1 to 1000 nM
- EC50 (FPR2): 1 to 1000 nM

SMILES: O=C1C[C@@H](c2ccc(OC(F)F)cc2)[C@H](NC(=O)Nc2ccc(Cl)cc2)CN1 (racemic) [Example 74, rac-trans-1-(4-chlorophenyl)-3-(4-(4-(difluoromethoxy)phenyl)-6-oxopiperidin-3-yl)urea]
- EC50 (FPR1): 1 to 1000 nM
- EC50 (FPR2): 1 to 1000 nM

SMILES: CS(=O)(=O)c1ccc([C@@H]2CC(=O)NC[C@H]2NC(=O)Nc2ccc(Cl)cc2)cc1 (racemic) [Example 75, rac-trans-1-(4-chlorophenyl)-3-(4-(4-(methylsulfonyl)phenyl)-6-oxopiperidin-3-yl)urea]
- EC50 (FPR1): 1 to 1000 nM
- EC50 (FPR2): 1 to 1000 nM

SMILES: COc1ccc(C2C(NC(=O)Nc3ccc(Cl)cc3)CCCN2C)cc1 (single isomer, unassigned; dia1) [Example 89, dia1-1-(4-chlorophenyl)-3-(2-(4-methoxyphenyl)-1-methylpiperidin-3-yl)urea]
- EC50 (FPR1): 1 to 1000 nM
- EC50 (FPR2): 1 to 1000 nM

SMILES: COc1cc(F)c(C2C(NC(=O)Nc3ccc(Cl)cc3)CCCN2C)c(F)c1 (single isomer, unassigned; dia2) [Example 88, dia2-1-(4-chlorophenyl)-3-(2-(2,6-difluoro-4-methoxyphenyl)-1-methylpiperidin-3-yl)urea]
- EC50 (FPR1): 1 to 1000 nM
- EC50 (FPR2): 1 to 1000 nM

SMILES: COc1ccc(C2C(NC(=O)Nc3ccc(Cl)cc3)CCCN2C)cc1 (single isomer, unassigned; dia2) [Example 90, dia2-1-(4-chlorophenyl)-3-(2-(4-methoxyphenyl)-1-methylpiperidin-3-yl)urea]
- EC50 (FPR1): 1 to 1000 nM
- EC50 (FPR2): 1 to 1000 nM

SMILES: COc1cc(F)c(C2CCNCC2NC(=O)Nc2ccc(Cl)cc2)c(F)c1 (single isomer, unassigned; ent1) [Example 36, trans-ent1-1-(4-chlorophenyl)-3-(4-(2,6-difluoro-4-methoxyphenyl)piperidin-3-yl)urea]
- EC50 (FPR1): 1 to 1000 nM
- EC50 (FPR2): < 1 nM

SMILES: COc1cc(F)c(C2CCN(C(=O)C3CC3)CC2NC(=O)Nc2ccc(Cl)cc2)c(F)c1 (single isomer, unassigned; ent1) [Example 39, trans-ent1-1-(4-chlorophenyl)-3-(1-(cyclopropanecarbonyl)-4-(2,6-difluoro-4-methoxyphenyl)piperidin-3-yl)urea]
- EC50 (FPR1): 1 to 1000 nM
- EC50 (FPR2): < 1 nM

SMILES: COc1ccc(C2CC(=O)NCC2NC(=O)Nc2ccc(Cl)cc2)c(F)c1 (single isomer, unassigned; ent1) [Example 42, trans-ent1-1-(4-chlorophenyl)-3-(4-(2-fluoro-4-methoxyphenyl)-6-oxopiperidin-3-yl)urea]
- EC50 (FPR1): 1 to 1000 nM
- EC50 (FPR2): < 1 nM

SMILES: COc1cc(F)c(C2CC(=O)NCC2NC(=O)Nc2ccncc2)c(F)c1 (single isomer, unassigned; ent1) [Example 47, ent1-1-(4-(2,6-difluoro-4-methoxyphenyl)-6-oxopiperidin-3-yl)-3-(pyridin-4-yl)urea]
- EC50 (FPR1): 1 to 1000 nM
- EC50 (FPR2): 1 to 1000 nM

SMILES: COc1cc(F)c(C2CC(=O)NCC2NC(=O)Nc2ccc(Cl)cc2)c(F)c1 (single isomer, unassigned; ent1) [Example 49, trans-ent1-1-(4-chlorophenyl)-3-(4-(2,6-difluoro-4-methoxyphenyl)-6-oxopiperidin-3-yl)urea]
- EC50 (FPR1): 1 to 1000 nM
- EC50 (FPR2): 1 to 1000 nM

SMILES: COCCN1CC(NC(=O)Nc2ccc(Cl)cc2)C(c2ccc(OC)cc2F)CC1=O (single isomer, unassigned; ent1) [Example 59, trans-ent1-1-(4-Chlorophenyl)-3-[4-(2-fluoro-4-methoxy-phenyl)-1-(2-methoxy-ethyl)-6-oxo-piperidin-3-yl]-urea]
- EC50 (FPR1): 1 to 1000 nM
- EC50 (FPR2): < 1 nM

SMILES: COc1ccc(C2CC(=O)N(CC(F)F)CC2NC(=O)Nc2ccc(Cl)cc2)c(F)c1 (single isomer, unassigned; ent1) [Example 61, trans-ent1-1-(4-Chlorophenyl)-3-[1-(2,2-difluoro-ethyl)-4-(2-fluoro-4-methoxy-phenyl)-6-oxo-piperidin-3-yl]-urea]
- EC50 (FPR1): < 1 nM
- EC50 (FPR2): < 1 nM

SMILES: COCCN1CC(NC(=O)Nc2ccc(Cl)cc2)C(c2ccc(F)cc2F)CC1=O (single isomer, unassigned; ent1) [Example 63, trans-ent1-1-(4-Chlorophenyl)-3-[4-(2,4-difluoro-phenyl)-1-(2-methoxy-ethyl)-6-oxo-piperidin-3-yl]-urea]
- EC50 (FPR1): 1 to 1000 nM
- EC50 (FPR2): 1 to 1000 nM

SMILES: O=C(Nc1ccc(Cl)cc1)NC1CN(CC(F)F)C(=O)CC1c1ccc(F)cc1F (single isomer, unassigned; ent1) [Example 65, trans-ent1-1-(4-Chlorophenyl)-3-[1-(2,2-difluoro-ethyl)-4-(2,4-difluoro-phenyl)-6-oxo-piperidin-3-yl]-urea]
- EC50 (FPR1): 1 to 1000 nM
- EC50 (FPR2): 1 to 1000 nM

SMILES: O=C1CC(c2ccc(F)cc2F)C(NC(=O)Nc2ccc(Cl)cc2)CN1 (single isomer, unassigned; ent1) [Example 67, trans-ent1-1-(4-Chlorophenyl)-3-[4-(2,4-difluoro-phenyl)-6-oxo-piperidin-3-yl]-urea]
- EC50 (FPR1): 1 to 1000 nM
- EC50 (FPR2): 1 to 1000 nM

SMILES: COc1ccc(C2CC(=O)NCC2NC(=O)Nc2ccc(Cl)cc2)cc1 (single isomer, unassigned; ent1) [Example 76, trans-ent1-1-(4-chlorophenyl)-3-(4-(4-methoxyphenyl)-6-oxopiperidin-3-yl)urea]
- EC50 (FPR1): 1 to 1000 nM
- EC50 (FPR2): < 1 nM

SMILES: O=C(Nc1ccc(Cl)cc1)NC1CNCCC1c1ccccc1 (single isomer, unassigned; ent1) [Example 80, trans-ent1-1-(4-chlorophenyl)-3-(4-phenylpiperidin-3-yl)urea]
- EC50 (FPR1): 1 to 1000 nM
- EC50 (FPR2): 1 to 1000 nM

From patent US10265310B2, “6-membered cyclic amines or lactames substituted with urea and phenyl” (GRÜNENTHAL GMBH, priority 2016, dated 2019)
